Measurements: the kinase profiling compilation of Christmann-Franck et al. (2016)
Values joined by “and” are separate entries in the source; they are usually repeats but may differ in a detail not shown here. Equal entries are not always repeated.

Columns and labels:
Test in all cases: radiometric filter-binding kinase assay
PIM2 (human) = PIM2 (human) (UniProt Q9P1W9)
BTK (human) = BTK (human) (UniProt Q06187)
HIPK2 (human) = HIPK2 (human) (UniProt Q9H2X6)
CDK2 CCNA2 (human) = CDK2 CCNA2 (human) (UniProt P20248+P24941)
[1] = system: PAK2 (human), Q13177 [T402E]
PAK2 (human), Q13177 [T402E], sequence (Q13177 whole entry T402E, looked up): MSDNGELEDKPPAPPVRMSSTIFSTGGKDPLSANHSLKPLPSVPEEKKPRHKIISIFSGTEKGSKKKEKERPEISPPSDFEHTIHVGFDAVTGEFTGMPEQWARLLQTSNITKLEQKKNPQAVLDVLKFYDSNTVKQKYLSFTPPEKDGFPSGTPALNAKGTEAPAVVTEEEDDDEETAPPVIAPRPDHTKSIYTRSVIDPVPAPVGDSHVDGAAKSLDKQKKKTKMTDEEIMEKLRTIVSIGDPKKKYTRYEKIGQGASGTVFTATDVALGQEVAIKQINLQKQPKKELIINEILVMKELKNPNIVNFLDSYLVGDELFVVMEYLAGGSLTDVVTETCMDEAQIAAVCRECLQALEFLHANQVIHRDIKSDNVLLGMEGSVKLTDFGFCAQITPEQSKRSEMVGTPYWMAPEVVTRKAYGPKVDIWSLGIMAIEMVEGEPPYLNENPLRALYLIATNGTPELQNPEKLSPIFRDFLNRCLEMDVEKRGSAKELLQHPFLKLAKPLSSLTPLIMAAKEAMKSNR

MARK2 (human) = MARK2 (human) (UniProt Q7KZI7)
MELK (human) = MELK (human) (UniProt Q14680)
MST4 (human) = MST4 (human) (UniProt Q9P289)
JAK2 JH1 JH2 (human) = JAK2 JH1 JH2 (human) (UniProt O60674)
JAK2 JH1 JH2 (human), sequence (O60674 whole entry, looked up): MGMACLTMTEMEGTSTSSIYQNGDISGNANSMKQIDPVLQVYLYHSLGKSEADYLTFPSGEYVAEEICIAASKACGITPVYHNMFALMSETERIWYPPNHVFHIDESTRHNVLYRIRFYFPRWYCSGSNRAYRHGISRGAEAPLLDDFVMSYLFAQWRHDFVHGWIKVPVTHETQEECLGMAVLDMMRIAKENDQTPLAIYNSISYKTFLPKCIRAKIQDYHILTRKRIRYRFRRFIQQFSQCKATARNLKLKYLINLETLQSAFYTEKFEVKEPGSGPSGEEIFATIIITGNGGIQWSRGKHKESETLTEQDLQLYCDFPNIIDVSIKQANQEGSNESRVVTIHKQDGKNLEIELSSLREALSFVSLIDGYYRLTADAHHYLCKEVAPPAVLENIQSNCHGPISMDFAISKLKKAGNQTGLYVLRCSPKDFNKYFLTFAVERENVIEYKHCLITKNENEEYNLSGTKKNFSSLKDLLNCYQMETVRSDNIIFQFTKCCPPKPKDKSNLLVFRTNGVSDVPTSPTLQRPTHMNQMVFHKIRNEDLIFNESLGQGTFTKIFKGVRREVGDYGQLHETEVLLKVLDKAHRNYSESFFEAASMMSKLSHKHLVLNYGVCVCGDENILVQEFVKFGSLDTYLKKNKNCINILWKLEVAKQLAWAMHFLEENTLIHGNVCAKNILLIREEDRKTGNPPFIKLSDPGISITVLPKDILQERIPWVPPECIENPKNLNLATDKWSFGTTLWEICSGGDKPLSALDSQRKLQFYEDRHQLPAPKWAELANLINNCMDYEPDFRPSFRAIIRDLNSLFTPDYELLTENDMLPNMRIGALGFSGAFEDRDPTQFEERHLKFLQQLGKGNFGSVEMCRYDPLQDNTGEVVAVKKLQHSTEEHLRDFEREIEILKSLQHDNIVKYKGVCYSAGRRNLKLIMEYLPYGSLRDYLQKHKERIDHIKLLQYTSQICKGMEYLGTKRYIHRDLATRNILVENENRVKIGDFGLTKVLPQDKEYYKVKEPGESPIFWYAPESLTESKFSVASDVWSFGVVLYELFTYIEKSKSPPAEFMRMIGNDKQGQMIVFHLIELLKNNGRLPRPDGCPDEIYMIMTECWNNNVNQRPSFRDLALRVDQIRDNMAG

IRAK4 (human) = IRAK4 (human) (UniProt Q9NWZ3)
IKBKE (human) = IKBKE (human) (UniProt Q14164)
NEK6 (human) = NEK6 (human) (UniProt Q9HC98)
IRAK1 (human) = IRAK1 (human) (UniProt P51617)
TBK1 (human) = TBK1 (human) (UniProt Q9UHD2)
TBK1 (human), sequence (Q9UHD2 whole entry, looked up): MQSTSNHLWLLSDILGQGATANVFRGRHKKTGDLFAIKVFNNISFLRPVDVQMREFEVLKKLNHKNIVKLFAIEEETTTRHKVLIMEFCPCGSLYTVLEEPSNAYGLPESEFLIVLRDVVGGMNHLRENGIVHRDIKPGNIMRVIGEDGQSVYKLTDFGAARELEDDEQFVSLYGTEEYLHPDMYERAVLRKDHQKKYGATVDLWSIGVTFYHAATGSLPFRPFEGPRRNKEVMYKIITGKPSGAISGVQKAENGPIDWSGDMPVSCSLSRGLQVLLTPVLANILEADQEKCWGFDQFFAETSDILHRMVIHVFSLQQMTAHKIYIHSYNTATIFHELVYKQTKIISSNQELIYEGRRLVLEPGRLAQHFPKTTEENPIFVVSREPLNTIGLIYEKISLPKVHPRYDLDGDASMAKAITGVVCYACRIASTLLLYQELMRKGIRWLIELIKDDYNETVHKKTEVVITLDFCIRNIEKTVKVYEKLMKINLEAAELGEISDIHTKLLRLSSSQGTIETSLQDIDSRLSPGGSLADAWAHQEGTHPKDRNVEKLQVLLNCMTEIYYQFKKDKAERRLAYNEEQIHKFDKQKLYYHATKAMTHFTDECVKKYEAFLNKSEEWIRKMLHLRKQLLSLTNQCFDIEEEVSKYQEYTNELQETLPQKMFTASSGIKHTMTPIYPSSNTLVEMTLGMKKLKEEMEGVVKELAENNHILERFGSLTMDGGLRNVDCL

CLK2 (human) = CLK2 (human) (UniProt P49760)
MARK3 (human) = MARK3 (human) (UniProt P27448)
PIM1 (human) = PIM1 (human) (UniProt P11309)
NTRK1 (human) = NTRK1 (human) (UniProt P04629)
NTRK1 (human), sequence (P04629 whole entry, looked up): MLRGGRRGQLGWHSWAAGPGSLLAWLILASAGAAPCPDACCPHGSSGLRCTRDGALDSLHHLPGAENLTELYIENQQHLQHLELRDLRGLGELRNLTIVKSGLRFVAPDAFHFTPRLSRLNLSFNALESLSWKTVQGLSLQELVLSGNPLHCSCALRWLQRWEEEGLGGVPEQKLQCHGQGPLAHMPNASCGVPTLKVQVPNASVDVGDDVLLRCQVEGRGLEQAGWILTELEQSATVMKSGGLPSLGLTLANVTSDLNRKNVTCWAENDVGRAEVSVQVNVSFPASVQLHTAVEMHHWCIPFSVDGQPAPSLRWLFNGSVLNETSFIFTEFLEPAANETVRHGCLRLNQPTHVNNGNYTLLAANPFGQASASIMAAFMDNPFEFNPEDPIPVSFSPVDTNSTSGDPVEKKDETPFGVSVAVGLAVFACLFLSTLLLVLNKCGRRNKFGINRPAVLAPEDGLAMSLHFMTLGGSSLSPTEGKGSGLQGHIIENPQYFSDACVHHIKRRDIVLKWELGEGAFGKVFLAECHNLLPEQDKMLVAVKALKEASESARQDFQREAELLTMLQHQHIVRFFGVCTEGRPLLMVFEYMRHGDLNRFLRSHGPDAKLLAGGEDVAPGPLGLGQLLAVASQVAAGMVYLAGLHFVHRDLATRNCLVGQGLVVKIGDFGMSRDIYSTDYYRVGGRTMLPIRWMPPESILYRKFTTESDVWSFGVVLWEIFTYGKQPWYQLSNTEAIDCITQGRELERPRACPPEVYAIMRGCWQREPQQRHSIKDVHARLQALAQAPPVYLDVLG

STK33 (human) = STK33 (human) (UniProt Q9BYT3)
ROCK2 (rat) = conditions: accession and sequence are those of the human protein
STK3 (human) = STK3 (human) (UniProt Q13188)
STK3 (human), sequence (Q13188 whole entry, looked up): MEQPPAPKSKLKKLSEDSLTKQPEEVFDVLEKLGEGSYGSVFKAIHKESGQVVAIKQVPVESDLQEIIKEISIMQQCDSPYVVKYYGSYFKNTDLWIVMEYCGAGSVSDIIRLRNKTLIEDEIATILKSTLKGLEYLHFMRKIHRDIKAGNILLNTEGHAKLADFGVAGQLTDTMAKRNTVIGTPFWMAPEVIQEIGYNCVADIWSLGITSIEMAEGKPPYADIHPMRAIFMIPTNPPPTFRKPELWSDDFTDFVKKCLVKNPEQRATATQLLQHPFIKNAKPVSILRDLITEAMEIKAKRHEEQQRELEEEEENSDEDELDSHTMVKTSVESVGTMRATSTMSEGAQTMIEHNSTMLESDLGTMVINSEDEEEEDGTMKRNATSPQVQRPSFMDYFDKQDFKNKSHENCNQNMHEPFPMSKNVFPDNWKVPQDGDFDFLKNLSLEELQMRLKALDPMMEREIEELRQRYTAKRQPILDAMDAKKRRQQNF

MKNK1 (human) = MKNK1 (human) (UniProt Q9BUB5)
MKNK1 (human), sequence (Q9BUB5 whole entry, looked up): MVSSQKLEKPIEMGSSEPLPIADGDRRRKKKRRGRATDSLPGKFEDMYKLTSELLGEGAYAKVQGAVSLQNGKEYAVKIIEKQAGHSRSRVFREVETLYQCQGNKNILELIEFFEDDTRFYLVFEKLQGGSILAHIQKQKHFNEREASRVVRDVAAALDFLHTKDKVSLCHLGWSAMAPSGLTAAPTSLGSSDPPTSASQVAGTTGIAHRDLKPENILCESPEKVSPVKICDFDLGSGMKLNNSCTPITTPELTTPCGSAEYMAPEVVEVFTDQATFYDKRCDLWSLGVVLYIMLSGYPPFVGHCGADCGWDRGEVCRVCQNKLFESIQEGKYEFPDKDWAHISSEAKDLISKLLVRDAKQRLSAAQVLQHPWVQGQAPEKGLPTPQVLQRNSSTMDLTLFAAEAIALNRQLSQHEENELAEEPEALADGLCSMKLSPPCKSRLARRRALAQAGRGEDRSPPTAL

PDPK1 (human) = PDPK1 (human) (UniProt O15530)
INSR (human) = INSR (human) (UniProt P06213)
MAPKAPK2 (human) = MAPKAPK2 (human) (UniProt P49137)
SRC (human) = SRC (human) (UniProt P12931)
PRKCG (human) = PRKCG (human) (UniProt P05129)
HIPK3 (human) = HIPK3 (human) (UniProt Q9H422)
PRKCA (human) = PRKCA (human) (UniProt P17252)

What does the source list for `CCN1CCN(Cc2ccc(NC(=O)c3ccc(C)c(Oc4ccnc5[nH]ccc45)c3)cc2C(F)(F)F)CC1`?
residual activity (PIM2 (human); compound 0.1 µM): 106%; residual activity (PIM2 (human); compound 1.0 µM): 95%; residual activity (PIM2 (human); compound 10.0 µM): 102%; residual activity (BTK (human); compound 0.1 µM): 103%; residual activity (BTK (human); compound 1.0 µM): 85.3%; residual activity (BTK (human); compound 10.0 µM): 34.2%; residual activity (HIPK2 (human); compound 0.1 µM): 105%; residual activity (HIPK2 (human); compound 1.0 µM): 60.3%; residual activity (HIPK2 (human); compound 10.0 µM): 12.6%; residual activity (CDK2 CCNA2 (human); compound 0.1 µM): 110%; residual activity (CDK2 CCNA2 (human); compound 1.0 µM): 112%; residual activity (CDK2 CCNA2 (human); compound 10.0 µM): 99.9%; residual activity ([1]; compound 0.1 µM): 116%; residual activity ([1]; compound 1.0 µM): 100%; residual activity ([1]; compound 10.0 µM): 68.6%; residual activity (MARK2 (human); compound 0.1 µM): 92.7%; residual activity (MARK2 (human); compound 1.0 µM): 74.5%; residual activity (MARK2 (human); compound 10.0 µM): 85.5%; residual activity (MELK (human); compound 0.1 µM): 115%; residual activity (MELK (human); compound 1.0 µM): 99.5%; residual activity (MELK (human); compound 10.0 µM): 64.1%; residual activity (MST4 (human); compound 0.1 µM): 95%; residual activity (MST4 (human); compound 1.0 µM): 78%; residual activity (MST4 (human); compound 10.0 µM): 32.1%; residual activity (JAK2 JH1 JH2 (human); compound 0.1 µM): 93.4%; residual activity (JAK2 JH1 JH2 (human); compound 1.0 µM): 92.4%; residual activity (JAK2 JH1 JH2 (human); compound 10.0 µM): 41.6%; residual activity (IRAK4 (human); compound 0.1 µM): 98.6%; residual activity (IRAK4 (human); compound 1.0 µM): 102%; residual activity (IKBKE (human); compound 0.1 µM): 106%; residual activity (IKBKE (human); compound 1.0 µM): 96.6%; residual activity (IKBKE (human); compound 10.0 µM): 80.1%; residual activity (NEK6 (human); compound 0.1 µM): 104%; residual activity (NEK6 (human); compound 1.0 µM): 84.6%; residual activity (NEK6 (human); compound 10.0 µM): 73.5%; residual activity (IRAK1 (human); compound 0.1 µM): 80.9%; residual activity (IRAK1 (human); compound 1.0 µM): 72.2%; residual activity (IRAK1 (human); compound 10.0 µM): 33.4%; residual activity (TBK1 (human); compound 0.1 µM): 113%; residual activity (TBK1 (human); compound 1.0 µM): 100%; residual activity (TBK1 (human); compound 10.0 µM): 96%; residual activity (CLK2 (human); compound 0.1 µM): 115%; residual activity (CLK2 (human); compound 1.0 µM): 104%; residual activity (CLK2 (human); compound 10.0 µM): 75.8%; residual activity (MARK3 (human); compound 0.1 µM): 112%; residual activity (MARK3 (human); compound 1.0 µM): 99.5%; residual activity (MARK3 (human); compound 10.0 µM): 105%; residual activity (PIM1 (human); compound 0.1 µM): 120%; residual activity (PIM1 (human); compound 1.0 µM): 117%; residual activity (PIM1 (human); compound 10.0 µM): 87.4%; residual activity (NTRK1 (human); compound 0.1 µM): 111%; residual activity (NTRK1 (human); compound 1.0 µM): 77.7%; residual activity (NTRK1 (human); compound 10.0 µM): 43.4%; residual activity (STK33 (human); compound 0.1 µM): 106%; residual activity (STK33 (human); compound 1.0 µM): 96.7%; residual activity (STK33 (human); compound 10.0 µM): 79.6%; residual activity (ROCK2 (rat); compound 0.1 µM): 91.7%; residual activity (ROCK2 (rat); compound 1.0 µM): 71.2%; residual activity (ROCK2 (rat); compound 10.0 µM): 25.5%; residual activity (STK3 (human); compound 0.1 µM): 111%; residual activity (STK3 (human); compound 1.0 µM): 124%; residual activity (STK3 (human); compound 10.0 µM): 91.5%; residual activity (MKNK1 (human); compound 0.1 µM): 98%; residual activity (MKNK1 (human); compound 1.0 µM): 104%; residual activity (MKNK1 (human); compound 10.0 µM): 82.7%; residual activity (PDPK1 (human); compound 0.1 µM): 101% and 98%; residual activity (PDPK1 (human); compound 1.0 µM): 100% and 86.1%; residual activity (INSR (human); compound 0.1 µM): 86.1%; residual activity (INSR (human); compound 1.0 µM): 81.6%; residual activity (INSR (human); compound 10.0 µM): 18%; residual activity (MAPKAPK2 (human); compound 0.1 µM): 110%; residual activity (MAPKAPK2 (human); compound 1.0 µM): 122%; residual activity (MAPKAPK2 (human); compound 10.0 µM): 113%; residual activity (SRC (human); compound 0.1 µM): 66.5%; residual activity (SRC (human); compound 1.0 µM): 9.72%; residual activity (SRC (human); compound 10.0 µM): 2.65%; residual activity (PRKCG (human); compound 0.1 µM): 108%; residual activity (PRKCG (human); compound 1.0 µM): 102%; residual activity (PRKCG (human); compound 10.0 µM): 106%; residual activity (HIPK3 (human); compound 0.1 µM): 110%; residual activity (HIPK3 (human); compound 1.0 µM): 70.3%; residual activity (HIPK3 (human); compound 10.0 µM): 19.8%; residual activity (PRKCA (human); compound 0.1 µM): 94%; residual activity (PRKCA (human); compound 1.0 µM): 84.4%; residual activity (PRKCA (human); compound 10.0 µM): 90.5%
